Measured values from PubChem BioAssay AID330 (DTP/NCI, 2004).
Values joined by “and” are separate entries in the source; they are usually repeats but may differ in a detail not shown here. Equal values may be shown once. Toxic doses and inconclusive results are not listed. How the source made its calls: active means survival T/C of 150% or more; inactive means T/C below 125% in these data.

System: P388 leukemia ip, CD2F1 mice, survival T/C
Assay: NCI In Vivo Anticancer Drug Screen. Data for tumor model P388 Leukemia (intraperitoneal) in CD2F1 (CDF1) mice
Settings: endpoint: median survival time, higher = longer survival
Method in brief: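 Mice carrying the transplanted tumor received test compound or vehicle. Survival was recorded in each group, and the value is the treated-group measurement divided by that of the vehicle-treated control group.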

Measured: T/C

Cc1cc2cc(C)c3c(Cl)nnc(Cl)c3c2o1
inactive: dose: 50.0 mg/kg/injection, schedule: Q01DX005 (ip), vehicle: saline with Tween-80 106 % of control | dose: 100.0 mg/kg/injection, schedule: Q01DX005 (ip), vehicle: saline with Tween-80 103 % of control | dose: 200.0 mg/kg/injection, schedule: Q01DX005 (ip), vehicle: saline with Tween-80 100 % of control

FP1(c2ccccc2)(c2ccccc2)Nc2cc(C(c3ccccc3)(c3ccccc3)c3ccccc3)ccc2O1
inactive: dose: 12.5 mg/kg/injection, schedule: Q01DX009 (ip), vehicle: saline with Tween-80 104 % of control | dose: 25.0 mg/kg/injection, schedule: Q01DX009 (ip), vehicle: saline with Tween-80 98 % of control | dose: 50.0 mg/kg/injection, schedule: Q01DX009 (ip), vehicle: saline with Tween-80 92 % of control | dose: 200.0 mg/kg/injection, schedule: Q01DX009 (ip), vehicle: saline with Tween-80 95 % of control

CC(=O)NCCCCCCNC(C)=O
inactive: dose: 25.0 mg/kg/injection, schedule: Q01DX009 (ip), vehicle: saline 100 % of control and 111 % of control and 97 % of control | dose: 31.0 mg/kg/injection, schedule: Q03HX008 (ip), vehicle: saline 101 % of control | dose: 41.7 mg/kg/injection, schedule: Q03HX024 (ip), vehicle: saline 105 % of control | dose: 50.0 mg/kg/injection, schedule: Q01DX009 (ip), vehicle: saline 100 % of control and 103 % of control and 119 % of control | dose: 62.5 mg/kg/injection, schedule: Q03HX008 (ip), vehicle: saline 103 % of control | dose: 83.0 mg/kg/injection, schedule: Q03HX024 (ip), vehicle: saline 107 % of control | dose: 100.0 mg/kg/injection, schedule: Q01DX009 (ip), vehicle: saline 103 % of control and 104 % of control | dose: 125.0 mg/kg/injection, schedule: Q03HX008 (ip), vehicle: saline 103 % of control | dose: 166.7 mg/kg/injection, schedule: Q03HX024 (ip), vehicle: saline 110 % of control | dose: 200.0 mg/kg/injection, schedule: Q01DX009 (ip), vehicle: saline 100 % of control and 105 % of control and 117 % of control | dose: 250.0 mg/kg/injection, schedule: Q01DX001 (ip), vehicle: saline 99 % of control | dose: 250.0 mg/kg/injection, schedule: Q03HX008 (ip), vehicle: saline 106 % of control | dose: 333.0 mg/kg/injection, schedule: Q03HX024 (ip), vehicle: saline 110 % of control | dose: 333.0 mg/kg/injection, schedule: Q04DX003 (ip), vehicle: saline 101 % of control | dose: 400.0 mg/kg/injection, schedule: Q01DX009 (ip), vehicle: saline 100 % of control and 105 % of control and 111 % of control | dose: 500.0 mg/kg/injection, schedule: Q01DX001 (ip), vehicle: saline 99 % of control | dose: 500.0 mg/kg/injection, schedule: Q03HX008 (ip), vehicle: saline 113 % of control | dose: 500.0 mg/kg/injection, schedule: Q03HX024 (ip), vehicle: saline 111 % of control | dose: 666.7 mg/kg/injection, schedule: Q04DX003 (ip), vehicle: saline 108 % of control | dose: 800.0 mg/kg/injection, schedule: Q01DX009 (ip), vehicle: saline 101 % of control and 108 % of control and 114 % of control | dose: 1000.0 mg/kg/injection, schedule: Q01DX001 (ip), vehicle: saline 101 % of control | dose: 1000.0 mg/kg/injection, schedule: Q03HX008 (ip), vehicle: saline 107 % of control | dose: 1333.0 mg/kg/injection, schedule: Q04DX003 (ip), vehicle: saline 106 % of control | dose: 2000.0 mg/kg/injection, schedule: Q01DX001 (ip), vehicle: saline 103 % of control | dose: 2666.0 mg/kg/injection, schedule: Q04DX003 (ip), vehicle: saline 105 % of control

CC(C)SC=O
inactive: dose: 50.0 mg/kg/injection, schedule: Q01DX009 (ip), vehicle: Klucel (hydroxypropylcellulose) (HPC) 100 % of control | dose: 100.0 mg/kg/injection, schedule: Q01DX009 (ip), vehicle: Klucel (hydroxypropylcellulose) (HPC) 107 % of control | dose: 200.0 mg/kg/injection, schedule: Q01DX009 (ip), vehicle: Klucel (hydroxypropylcellulose) (HPC) 106 % of control

CSC(C)(C(=N)C#N)N(C)C (configuration not stated)
inactive: dose: 12.5 mg/kg/injection, schedule: Q04DX003 (ip), vehicle: saline 103 % of control | dose: 25.0 mg/kg/injection, schedule: Q04DX003 (ip), vehicle: saline 100 % of control | dose: 50.0 mg/kg/injection, schedule: Q04DX003 (ip), vehicle: saline 104 % of control

COc1ccc(OC)c(CC(C)N)c1 (configuration not stated)
inactive: dose: 60.0 mg/kg/injection, schedule: Q01DX005 (ip), vehicle: saline 98 % of control | dose: 120.0 mg/kg/injection, schedule: Q01DX005 (ip), vehicle: saline 93 % of control

CC1=NN(c2ccccc2)C/C1=N\O
inactive: dose: 50.0 mg/kg/injection, schedule: Q01DX005 (ip), vehicle: Klucel (hydroxypropylcellulose) (HPC) 103 % of control | dose: 100.0 mg/kg/injection, schedule: Q01DX005 (ip), vehicle: Klucel (hydroxypropylcellulose) (HPC) 102 % of control
